Reference: patent EP1053246B1, “BETA-SHEET MIMETICS AND METHODS RELATING TO THE USE THEREOF” (MOLECUMETICS, LTD., priority 1998, dated 1999)
Where two headings read alike, the source gives them in different places.

Assays:
[1] = target: T1, bovine thrombin (Bos taurus, UniProt P00735); assay: thrombin assay: hydrolysis of the mimetic as proteolytic substrate; type: biochemical
T1 construct: bovine thrombin (from Sigma); purchased Sigma
Description: (§1) Both the thrombin and Factor VII assays of this experiment were carried out at 37°C using a Hitachi UV/Vis spectrophotometer (model U-3000). Structure (11b) was dissolved in deionized water. The concentration was determined from the absorbance at 342 nm. […] Initial velocities were calculated from the initial linear portion of the reaction progress curve. Kinetic parameters were determined by unweighted nonlinear least-squares fitting of the simple Michaelis-Menten equation to the experimental data using GraFit (Version 3.0, Erithacus Software Limited).
For the thrombin assay, experiments were performed in pH 8.4 Tris buffer (Tris, 0.05M; NaCl, 0.15M). 6.4 NIH units of bovine thrombin (from Sigma) were dissolved into 10 ml of the assay buffer to yield 10 nM thrombin solution. […] The first two minutes of the reactions were recorded for initial velocity determination.
(§2) In both the thrombin and Factor VII assay of this experiment, (D)FPR-PNA was run as a control.

[2] = target: T2, human Factor VIIa (FVIIa) (Homo sapiens, UniProt P08709); assay: Factor VII assay: hydrolysis of the mimetic as proteolytic substrate; type: biochemical; settings: relative to (D)FPR-PNA control
T2 construct: human Factor VIIa (FVIIa)
Description: as §1
For the Factor VII assay, pH 8.0 Tris buffer (0.05 M Tris, 5 mM CaCl2, 0.15 M NaCl, 0.1% TWEEN 20, 0.1% BSA) was used. 10 µl of 20 µM human Factor VIIa (FVIIa) and 22 µM of human tissue factor (TF) was brought to assay buffer to make 160 nM FVIIa and TF solutions, respectively. […] The initial 3 minutes reaction progress curves were recorded. […] The kcat/KM was calculated from the slope and found to be 17,500 M^-1s^-1.
as §2

[3] = target: T3, bovine factor Xa (Bos taurus, UniProt P00743); assay: Factor X inhibition assay (IC50, Example 4); type: biochemical; settings: Factor X; read-out: IC50
T3 construct: bovine factor Xa (from Sigma); purchased Sigma
Description: All inhibition assays of this experiment were performed at room temperature in 96 well microplates using a Bio-Rad microplate reader (Model 3550). […] This solution (2.05 mM) served as the stock solution for all the inhibition assays. The hydrolysis of chromogenic substrates was monitored at 405 nm. The reaction progress curves were recorded by reading the plates typically 90 times with 30 seconds to 2 minute intervals. The initial rate were determined by unweighted nonlinear least-squares fitting to a first order reaction in GraFit.
In the Factor X assay, buffer and substrate are the same as used for thrombin assay. A 1:100 dilution was made into pH 8.4 Tris buffer to serve as the first point. Seven dilutions with a dilution factor of 2 were made. The assay protocol is the same as for thrombin except 25 nM of bovine factor Xa (from Sigma) in pH 8.4 Tris buffer was used instead of thrombin.

[4] = test system: control plasma; assay: prothrombin time (PT) in control plasma; type: biochemical
Description: Then 200 µl of prewarmed (at 37°C for ∼10 minutes) thromboplastin with calcium (from Sigma) was rapidly added into the plasma sample. […]

[5] = test system: tryptase; assay: tryptase inhibition assay (Ki, Example 5); type: biochemical, human lung
Description: (§3) The reaction progress curves were recorded by reading the plates, typically 60 times with 30 second to 2 minute intervals. Initial rates were determined by unweighted nonlinear least-squares fitting to a first order reaction in GraFit (Erithacus Software Limited, London, England).
Tryptase: 0.1 M tris, 0.2 M NaCl, 0.1 mg/ml heparin, pH=8.0 was utilized as buffer. […] From this point seven more dilutions were made for the assay.

[6] = test system: Factor X; assay: Factor X inhibition assay (Ki), source of enzyme not stated; type: biochemical; settings: ratio of Ki of an enzyme to the Ki of thrombin
[7] = test system: thioredoxin; assay: block of insulin disulfide reduction by thioredoxin (turbidity at 650 nm); type: biochemical; settings: 8 µM thioredoxin, 0-100 µM compound, 60 minutes
[8] = target: T4, factor VII (Homo sapiens, UniProt P08709); assay: Factor VII inhibition assay (Ki, Example 5); type: biochemical
T4 construct: human Factor VIIa (FVIIa)
T4 sequence (P08709 61-212 limits assumed): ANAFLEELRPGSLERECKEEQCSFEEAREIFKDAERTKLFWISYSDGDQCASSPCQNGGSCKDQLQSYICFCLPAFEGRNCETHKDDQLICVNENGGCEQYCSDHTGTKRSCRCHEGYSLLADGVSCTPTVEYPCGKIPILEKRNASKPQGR
T4 sequence (P08709 213-466 limits assumed): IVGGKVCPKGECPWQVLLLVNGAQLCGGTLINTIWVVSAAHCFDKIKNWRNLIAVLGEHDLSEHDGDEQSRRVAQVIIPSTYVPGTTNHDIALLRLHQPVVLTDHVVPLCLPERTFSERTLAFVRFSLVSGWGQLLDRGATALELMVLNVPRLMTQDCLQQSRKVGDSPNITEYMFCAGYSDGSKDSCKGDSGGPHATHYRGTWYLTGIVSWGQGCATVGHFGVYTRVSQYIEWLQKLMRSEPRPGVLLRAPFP
Description: as §3
From this concentration point seven more sequential dilutions were made for the assay.

[9] = target: T5, factor X (Bos taurus, UniProt P00743); assay: Factor X inhibition assay (Ki, Example 5), bovine plasma enzyme; type: biochemical; settings: footnote e: bovine plasma
T5 construct: bovine factor Xa (from Sigma); from tissue; host or cells: bovine plasma
Description: All inhibition assays were performed at room temperature in 96 well microplates using Bio-Rad microplate reader (Model 3550). […] The hydrolysis of chromogenic substrates was monitored at 405 nm. The reaction progress curves were recorded by reading the plates, typically 60 times with 30 second to 2 minute intervals. Initial rates were determined by unweighted nonlinear least-squares fitting to a first order reaction in GraFit (Erithacus Software Limited, London, England).
Factor X: Buffer and substrate were the same as used for thrombin assay. A 1:100 dilution was made -in the pH8.0 tris buffer to serve as the first point. Seven more dilutions from the first were made for the assay.

[10] = target: T6, trypsin (Bos taurus, UniProt P00760); assay: trypsin inhibition assay (Ki, Example 5); type: biochemical, bovine pancreas
T6 construct: from tissue; host or cells: bovine pancreas
T6 sequence (P00760 24-246): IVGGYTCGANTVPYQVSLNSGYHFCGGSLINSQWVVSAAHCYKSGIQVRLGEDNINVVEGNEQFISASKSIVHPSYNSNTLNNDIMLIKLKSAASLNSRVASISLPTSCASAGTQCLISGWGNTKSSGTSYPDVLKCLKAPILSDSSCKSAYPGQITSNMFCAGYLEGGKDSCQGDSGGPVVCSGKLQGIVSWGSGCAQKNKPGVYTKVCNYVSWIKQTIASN
Description: as §3

[11] = target: thrombin (Bos taurus, UniProt P00735); assay: thrombin inhibition assay (Ki, Example 5); type: biochemical, bovine plasma; set-up: Thrombin: N-p-tosyl-Gly-Pro-Arg-pNA (from Sigma) was used at 0.5 mM concentration; from tissue; host or cells: bovine plasma
Description: as §3
Seven sequential dilutions were made from the first point for the assay.

[12] = target: t-PA (Homo sapiens, UniProt P00750); assay: t-PA inhibition assay (Ki, Example 5); type: biochemical
Description: as §3

[13] = target: T7, APC (Homo sapiens, UniProt P04070); assay: activated protein C inhibition assay (Ki, Example 5); type: biochemical, human plasma
T7 construct: from tissue; host or cells: human plasma

[14] = target: Factor XI (Homo sapiens, UniProt P03951); assay: Factor XI inhibition assay (Ki); type: biochemical
[15] = target: thrombin-thrombomodulin complex (Bos taurus, UniProt P00735); assay: thrombin-thrombomodulin complex inhibition assay (Ki); type: biochemical; settings: thrombin preincubated with 4 nM thrombomodulin, read-out: Ki (M) T.T.C.
[16] = target: Plasmin (Bos taurus, UniProt P06868); assay: plasmin inhibition assay (Ki, Example 5); type: biochemical, bovine plasma; set-up: Plasmin: Buffer (see thrombin assay); from tissue; host or cells: bovine plasma
Description: as §3

[17] = target: thermolysin (Bacillus thermoproteolyticus, UniProt P00800); assay: thermolysin inhibition assay; type: biochemical
[18] = target: T8, leucine aminopeptidase M (Sus scrofa, UniProt P15145); assay: leucine aminopeptidase M inhibition assay; type: biochemical
T8 construct: purchased Sigma

[19] = target: papain (Carica papaya, UniProt P00784); assay: papain inhibition assay
[20] = substrate hydrolysis, pH 8.4 Tris buffer, 37°C

T5 sequence (P00743 41-180 limits assumed): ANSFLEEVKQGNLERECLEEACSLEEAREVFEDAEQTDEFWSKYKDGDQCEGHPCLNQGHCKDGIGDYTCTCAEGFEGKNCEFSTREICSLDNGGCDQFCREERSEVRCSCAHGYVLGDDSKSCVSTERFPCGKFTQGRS
T5 sequence (P00743 234-492 limits assumed): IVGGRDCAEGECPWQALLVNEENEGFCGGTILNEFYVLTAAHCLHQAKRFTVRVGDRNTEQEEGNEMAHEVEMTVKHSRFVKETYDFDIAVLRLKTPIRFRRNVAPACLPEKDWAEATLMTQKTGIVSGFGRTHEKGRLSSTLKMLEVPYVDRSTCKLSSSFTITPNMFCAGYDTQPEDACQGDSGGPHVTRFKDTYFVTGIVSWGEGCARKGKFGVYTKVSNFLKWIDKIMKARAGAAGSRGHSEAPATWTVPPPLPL
Sequence of Factor XI (P03951 388-625 limits assumed): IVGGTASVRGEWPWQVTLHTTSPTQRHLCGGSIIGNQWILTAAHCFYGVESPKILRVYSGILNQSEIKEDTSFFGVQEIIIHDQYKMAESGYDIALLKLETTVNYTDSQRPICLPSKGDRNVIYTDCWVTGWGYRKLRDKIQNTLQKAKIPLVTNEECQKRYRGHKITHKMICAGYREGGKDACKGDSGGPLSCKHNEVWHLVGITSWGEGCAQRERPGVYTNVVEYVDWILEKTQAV
Sequence of Factor XI (P03951 19-387 limits assumed): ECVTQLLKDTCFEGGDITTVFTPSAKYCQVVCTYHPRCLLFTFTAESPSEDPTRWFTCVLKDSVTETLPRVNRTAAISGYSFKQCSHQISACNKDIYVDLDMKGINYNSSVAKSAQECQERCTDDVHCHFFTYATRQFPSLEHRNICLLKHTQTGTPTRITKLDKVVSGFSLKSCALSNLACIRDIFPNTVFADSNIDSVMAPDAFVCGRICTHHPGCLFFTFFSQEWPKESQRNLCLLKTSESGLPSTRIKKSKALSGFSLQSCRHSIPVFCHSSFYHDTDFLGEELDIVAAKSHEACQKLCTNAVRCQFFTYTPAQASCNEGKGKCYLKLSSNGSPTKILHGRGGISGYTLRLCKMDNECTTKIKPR
Sequence of papain (P00784 134-345): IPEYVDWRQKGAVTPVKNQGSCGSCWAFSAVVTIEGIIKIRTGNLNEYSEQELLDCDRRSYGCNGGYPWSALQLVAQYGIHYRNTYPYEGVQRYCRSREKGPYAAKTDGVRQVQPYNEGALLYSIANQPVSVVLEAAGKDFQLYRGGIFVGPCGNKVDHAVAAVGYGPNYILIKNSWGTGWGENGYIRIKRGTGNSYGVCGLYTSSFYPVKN
T2 sequence (P13726 33-295 partner, one chain of several): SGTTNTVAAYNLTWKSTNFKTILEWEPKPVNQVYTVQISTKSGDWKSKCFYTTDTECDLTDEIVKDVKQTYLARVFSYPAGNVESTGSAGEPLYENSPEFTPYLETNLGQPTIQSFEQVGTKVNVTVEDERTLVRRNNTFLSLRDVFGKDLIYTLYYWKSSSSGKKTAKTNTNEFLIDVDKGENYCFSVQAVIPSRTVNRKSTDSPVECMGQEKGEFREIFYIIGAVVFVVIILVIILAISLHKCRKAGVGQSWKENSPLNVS
T8 sequence (P15145 whole entry): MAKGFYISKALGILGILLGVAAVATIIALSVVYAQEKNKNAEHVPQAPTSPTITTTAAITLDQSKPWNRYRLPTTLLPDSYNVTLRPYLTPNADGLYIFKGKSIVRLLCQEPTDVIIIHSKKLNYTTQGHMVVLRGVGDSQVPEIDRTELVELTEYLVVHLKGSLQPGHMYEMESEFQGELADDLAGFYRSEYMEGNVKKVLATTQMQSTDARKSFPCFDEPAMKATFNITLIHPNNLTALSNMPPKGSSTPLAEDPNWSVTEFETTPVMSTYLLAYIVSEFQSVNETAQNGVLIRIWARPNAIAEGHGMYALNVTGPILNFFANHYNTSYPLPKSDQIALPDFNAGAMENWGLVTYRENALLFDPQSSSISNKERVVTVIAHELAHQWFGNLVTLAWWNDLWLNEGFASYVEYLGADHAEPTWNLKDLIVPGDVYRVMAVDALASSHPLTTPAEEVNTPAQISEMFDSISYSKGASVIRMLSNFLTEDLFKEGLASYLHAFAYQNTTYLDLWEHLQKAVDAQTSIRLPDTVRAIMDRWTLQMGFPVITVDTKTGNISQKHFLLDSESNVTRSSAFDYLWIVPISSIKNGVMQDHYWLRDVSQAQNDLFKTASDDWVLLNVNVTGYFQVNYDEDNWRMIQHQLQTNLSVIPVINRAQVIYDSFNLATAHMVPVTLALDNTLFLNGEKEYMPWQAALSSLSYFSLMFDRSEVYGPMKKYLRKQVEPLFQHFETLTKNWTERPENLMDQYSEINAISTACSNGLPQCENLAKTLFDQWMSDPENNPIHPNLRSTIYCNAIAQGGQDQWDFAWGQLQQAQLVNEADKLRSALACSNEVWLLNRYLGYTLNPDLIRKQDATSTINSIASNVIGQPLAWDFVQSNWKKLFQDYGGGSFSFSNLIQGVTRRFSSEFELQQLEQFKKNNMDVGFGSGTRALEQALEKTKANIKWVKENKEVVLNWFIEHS
T3 sequence (P00743 41-180 limits assumed): as the sequence (P00743 41-180 limits assumed) above
T3 sequence (P00743 234-492 limits assumed): as the sequence (P00743 234-492 limits assumed) above
Sequence of t-PA (P00750 36-562): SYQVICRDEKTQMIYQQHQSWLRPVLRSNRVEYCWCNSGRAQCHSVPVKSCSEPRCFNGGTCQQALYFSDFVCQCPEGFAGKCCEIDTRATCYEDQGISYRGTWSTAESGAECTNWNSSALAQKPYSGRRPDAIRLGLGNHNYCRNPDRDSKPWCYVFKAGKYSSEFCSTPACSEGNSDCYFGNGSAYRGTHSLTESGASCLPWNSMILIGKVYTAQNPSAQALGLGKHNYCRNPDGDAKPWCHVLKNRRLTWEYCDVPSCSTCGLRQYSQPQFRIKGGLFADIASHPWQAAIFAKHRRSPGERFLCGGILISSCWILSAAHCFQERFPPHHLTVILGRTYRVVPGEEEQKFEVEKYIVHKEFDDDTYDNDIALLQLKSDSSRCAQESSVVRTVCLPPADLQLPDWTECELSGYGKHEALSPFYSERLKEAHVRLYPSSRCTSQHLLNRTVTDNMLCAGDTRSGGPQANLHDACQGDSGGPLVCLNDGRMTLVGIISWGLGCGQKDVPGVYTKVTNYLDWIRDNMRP
T7 sequence (P04070 43-197 limits assumed): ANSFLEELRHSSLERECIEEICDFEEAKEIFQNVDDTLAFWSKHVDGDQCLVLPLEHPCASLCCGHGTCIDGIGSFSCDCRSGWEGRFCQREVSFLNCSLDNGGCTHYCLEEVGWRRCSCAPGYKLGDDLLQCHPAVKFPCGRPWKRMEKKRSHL
T7 sequence (P04070 212-461 limits assumed): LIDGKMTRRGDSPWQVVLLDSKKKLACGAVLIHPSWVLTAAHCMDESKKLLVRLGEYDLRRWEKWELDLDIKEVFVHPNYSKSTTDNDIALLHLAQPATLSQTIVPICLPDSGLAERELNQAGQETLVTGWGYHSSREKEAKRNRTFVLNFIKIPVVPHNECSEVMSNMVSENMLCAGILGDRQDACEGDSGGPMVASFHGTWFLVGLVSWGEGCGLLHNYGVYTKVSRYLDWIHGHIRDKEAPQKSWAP
Sequence of Plasmin (P06868 104-583 limits assumed): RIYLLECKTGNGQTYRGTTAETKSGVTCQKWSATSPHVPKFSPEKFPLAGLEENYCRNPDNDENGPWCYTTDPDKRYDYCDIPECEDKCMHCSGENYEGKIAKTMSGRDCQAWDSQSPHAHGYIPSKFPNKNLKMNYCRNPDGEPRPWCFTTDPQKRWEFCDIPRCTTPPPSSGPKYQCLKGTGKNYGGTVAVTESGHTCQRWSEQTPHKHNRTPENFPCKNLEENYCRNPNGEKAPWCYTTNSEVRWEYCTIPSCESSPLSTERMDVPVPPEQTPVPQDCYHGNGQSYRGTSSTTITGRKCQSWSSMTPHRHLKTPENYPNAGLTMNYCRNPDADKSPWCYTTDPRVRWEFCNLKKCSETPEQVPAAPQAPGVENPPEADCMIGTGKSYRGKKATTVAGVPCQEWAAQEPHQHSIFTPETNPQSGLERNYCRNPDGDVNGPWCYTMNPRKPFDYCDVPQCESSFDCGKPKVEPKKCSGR
Sequence of Plasmin (P06868 584-812 limits assumed): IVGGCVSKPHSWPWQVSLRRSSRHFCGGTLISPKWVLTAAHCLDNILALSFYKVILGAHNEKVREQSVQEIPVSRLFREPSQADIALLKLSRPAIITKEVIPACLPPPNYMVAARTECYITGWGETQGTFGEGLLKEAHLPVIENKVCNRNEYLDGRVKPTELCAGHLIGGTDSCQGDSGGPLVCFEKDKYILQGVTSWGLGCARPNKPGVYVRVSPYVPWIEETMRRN
Sequence of thermolysin (P00800 233-548, species assumed): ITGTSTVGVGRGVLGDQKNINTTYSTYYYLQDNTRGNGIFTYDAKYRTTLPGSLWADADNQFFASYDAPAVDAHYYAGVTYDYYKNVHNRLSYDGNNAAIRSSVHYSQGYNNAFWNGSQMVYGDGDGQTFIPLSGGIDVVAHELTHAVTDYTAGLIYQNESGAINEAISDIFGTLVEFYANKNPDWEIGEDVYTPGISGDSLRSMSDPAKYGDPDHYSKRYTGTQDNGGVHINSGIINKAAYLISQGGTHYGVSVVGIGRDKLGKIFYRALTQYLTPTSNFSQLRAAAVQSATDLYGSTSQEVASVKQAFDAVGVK

Structure (SMILES): N=C(N)NCCC[C@H](NC(=O)[C@@H]1CCN2CC[C@@](N)(Cc3ccccc3)C(=O)N12)C(=O)Nc1ccc([N+](=O)[O-])cc1 [(11b)]
- Km [1, 20]: 3 µM
- kcat [1, 20]: 50 s⁻¹
- Activity compared to the control ([1]; thrombin, relative to (D)FPR-PNA control): 0.76
- Activity compared to the control [2]: 1.38

Structure (SMILES): N=C(N)NCCC[C@H](NC(=O)[C@@H]1CCN2CC[C@@](N)(Cc3ccccc3)C(=O)N12)C(=O)CCl [(13b)]
- IC50 [3]: 385 ± 17 nM
- PT ([4]; Concentration 1 pM): 13 s
- PT ([4]; Concentration 10 pM): 17 s
- PT ([4]; Concentration 50 pM): 18 s
- PT ([4]; Concentration 100 pM): 23 s
- PT ([4]; Concentration 200 pM): 24 s
- PT ([4]; Concentration 500 pM): 27 s
- PT ([4]; Concentration 1 nM): 30 s
- PT ([4]; Concentration 10 nM): 31 s
- PT ([4]; Concentration 30 nM): 31 s
- PT ([4]; Concentration 50 nM): 30 s
- PT ([4]; Concentration 80 nM): 33 s

Structure (SMILES): N=C(N)NCCCC(NC(=O)C1CCC2CCC(N)(Cc3ccccc3)C(=O)N21)C(=O)c1nc2ccccc2s1 (stereo not drawn) [(29b)]
- Selectivity ([5]; Tryptase, ratio of Ki of an enzyme to the Ki of thrombin): 106
- Ki ([5]; tryptase, read-out: Ki): 9e-09 M
- Selectivity [6]: 227

Structure (SMILES): N=C(N)NCCC[C@H](NC(=O)[C@@H]1CCCN1C(=O)[C@H](N)Cc1ccccc1)C(=O)CCl [PPACK, (D)FPR-CH2Cl, reference compound]
- PT ([4]; Concentration 500 pM): 15 s
- PT ([4]; Concentration 1 nM): 18 s
- PT ([4]; Concentration 10 nM): 22 s
- PT ([4]; Concentration 20 nM): 25 s
- PT ([4]; Concentration 40 nM): 28 s
- PT ([4]; Concentration 60 nM): 30 s
- PT ([4]; Concentration 80 nM): 31 s

Structure (SMILES): CC1=C2[C@H]3OC(=O)[C@@H](C)[C@@H]3CC[C@@]2(C)C=CC1=O [Santonin]
- thioredoxin-induced turbidity of insulin [7]: did not block thioredoxin-induced turbidity of insulin

Structure (SMILES): N=C(N)NCCCC(NC(=O)C1CCC2CCC(N)(Cc3ccccc3)C(=O)N21)C(=O)c1nc2ccccc2s1 (stereo not drawn) [Structure (29b)]
- Ki ([5]; read-out: Ki (M) Tryptase): 9e-09 M

Structure (SMILES): N=C(N)NCCC[C@H](NC(=O)[C@@H]1CCN2CC[C@@](N)(Cc3ccccc3)C(=O)N12)C(=O)C(=O)NCCc1ccccc1 [Structure (35)]
- Ki [8]: 16.4 nM
- Ki [9]: 345 nM
- Ki [10]: 0.027 nM

Structure (SMILES): N=C(N)NCCC[C@H](NC(=O)[C@@H]1CCN2CC[C@@](N)(Cc3ccccc3)C(=O)N12)C(=O)C(=O)NCc1ccccc1 [Structure (37)]
- Ki [10]: 0.0773 nM
- Ki [11]: 0.0732 nM

Structure (SMILES): N=C(N)NCCC[C@H](NC(=O)[C@@H]1CCN2CC[C@@](N)(Cc3ccccc3)C(=O)N12)C(=O)C(=O)NCCc1ccc(Cl)cc1 [Structure (39)]
- Ki [11]: 0.31 nM

Structure (SMILES): COc1ccc(CCNC(=O)C(=O)[C@H](CCCNC(=N)N)NC(=O)[C@@H]2CCN3CC[C@@](N)(Cc4ccccc4)C(=O)N23)cc1 [Structure (41)]
- Ki [11]: 0.45 nM

Structure (SMILES): COC(=O)c1c[nH]c(C(=O)[C@H](CCCNC(=N)N)NC(=O)[C@@H]2CCN3CC[C@@](N)(Cc4ccccc4)C(=O)N23)n1 [Structure (45)]
- Ki [8]: 29600 nM
- Ki [12]: 17200 nM
- Ki [13]: 25600 nM
- Ki ([5]; read-out: Ki (M) Tryptase): 1.65e-06 M
- Ki [10]: 52.4 nM
- Ki [14]: 1240 nM
- Ki [15]: 6.9e-09 M
- Ki [16]: 23800 nM
- Ki [11]: 5.4 nM

Structure (SMILES): N=C(N)NCCC[C@H](NC(=O)[C@@H]1CCN2CC[C@@](N)(Cc3ccccc3)C(=O)N12)C(=O)c1nccs1 [Structure (47)]
- Ki [8]: 968 nM
- Ki [9]: 1500 nM
- Ki [10]: 1.9 nM

Structure (SMILES): N=C(N)NC(=O)NC[C@H](NC(=O)[C@@H]1CCN2CC[C@@](N)(Cc3ccccc3)C(=O)N12)C(=O)c1nc2ccccc2s1 [Structure (51)]
- Ki [8]: 4260 nM
- Ki [10]: 37.9 nM
- Ki [14]: 1730 nM
- Ki [11]: 7.25 nM

Structure (SMILES): COC(=O)c1cccc2c1C(=O)N([C@@H](CC(C)C)C(=O)NO)C2=O [Structure (234)]
- Ki [17]: 6000 nM
- Ki [18]: 11000 nM
- IC50 [19]: 8000 nM
